Reference: patent US20230349907A1, “BIOPROBES FOR LYSYL OXIDASES AND USES THEREOF” (Pharmaxis Ltd., priority 2020, published 2023)
Where a name gives a salt, the structure may show the parent alone.

How the values were obtained:
[1] = molecular target: Bovine LOX (Bos taurus (Bovine), UniProt P33072); experiment: LOX inhibition, peroxidase-coupled Amplex Red assay; assay type: biochemical; conditions: 30 min preincubation at 37° C.
Description: (§1) Method to Determine the Ability of Compounds of the Invention to Inhibit LOX and LOXL1-4 from Different Sources […] S., Trackman P. C. and Kagan H. M., Reaction of aortic lysyl oxidase with beta-aminoproprionitrile. J Biol Chem 1983; 258: 4331-4338). There are five LOX family members; these are LOX, LOXL1, LOXL2, LOXL3 and LOXL4. LOX and LOXL family members can be acquired as recombinant active proteins from commercial sources, or extracted from animal tissues like bovine aorta, tendons, pig skin; or prepared from cell cultures. The inhibitory effects of the compounds of the present invention were tested against the given LOX-LOXL preparation using a high-throughput coupled colorimetric method (Holt A. and Palcic M., A peroxidase-coupled continuous absorbance plate-reader assay for flavin monoamine oxidases, copper-containing amine oxidases and related enzymes. Nat. Protoc. 2006; 1: 2498-2505). The assay was developed using either 384 or 96 well format. […] Test compounds were dissolved in DMSO and tested in a Concentration Response Curve (CRC) with 11 data points, typically in the micromolar or nanomolar range after incubation with the enzyme for 30 min at 37° C. 25 μL of a reaction mixture containing twice the KM concentration of putrescine (Sigma Aldrich, e.g. 20 mM for LOX, or 10 mM for LOXL2 and LOXL3), 120 μM Amplex Red (Sigma Aldrich) and 1.5 U/mL horseradish peroxidase (Sigma Aldrich) prepared in 1.2 M urea, 50 mM sodium borate buffer (pH 8.2) were then added to the corresponding wells. The above volumes were doubled in the case of 96 well plates. The fluorescence (RFU) was read every 2.5 m n for 30 m u […], excitation 565 nm and emission 590 nm (Optima; BMG labtech). The slope of the kinetics for each well was calculated using MARS data analysis software (BMG labtech) and this value was used to deduce the IC50 value (Dotmatics).

[2] = molecular target: rhLOXL2 (Homo sapiens (Human), UniProt Q9Y4K0); experiment: LOXL2 inhibition, peroxidase-coupled Amplex Red assay; assay type: biochemical; conditions: 30 min preincubation at 37° C.
rhLOXL2, sequence (Q9Y4K0 26-774): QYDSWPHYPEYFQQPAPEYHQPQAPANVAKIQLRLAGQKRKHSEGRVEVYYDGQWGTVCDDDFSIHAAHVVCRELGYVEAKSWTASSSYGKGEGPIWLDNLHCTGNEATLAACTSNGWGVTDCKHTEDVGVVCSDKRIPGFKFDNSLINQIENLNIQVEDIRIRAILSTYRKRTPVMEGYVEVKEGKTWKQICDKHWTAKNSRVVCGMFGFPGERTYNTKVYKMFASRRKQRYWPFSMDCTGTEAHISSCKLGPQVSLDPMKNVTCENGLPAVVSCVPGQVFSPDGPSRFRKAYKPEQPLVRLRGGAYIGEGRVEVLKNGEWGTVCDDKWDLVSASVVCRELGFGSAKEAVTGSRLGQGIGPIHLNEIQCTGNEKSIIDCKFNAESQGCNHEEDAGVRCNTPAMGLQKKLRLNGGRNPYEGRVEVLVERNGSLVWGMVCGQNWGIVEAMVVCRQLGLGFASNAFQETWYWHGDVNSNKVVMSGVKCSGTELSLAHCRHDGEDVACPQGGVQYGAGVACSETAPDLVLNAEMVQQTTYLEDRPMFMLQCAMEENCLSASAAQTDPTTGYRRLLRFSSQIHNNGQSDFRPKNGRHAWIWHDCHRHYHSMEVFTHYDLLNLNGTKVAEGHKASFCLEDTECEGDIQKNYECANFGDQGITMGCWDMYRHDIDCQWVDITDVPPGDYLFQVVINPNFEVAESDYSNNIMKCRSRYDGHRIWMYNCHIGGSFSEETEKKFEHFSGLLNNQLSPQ
Description: as §1

Bovine LOX, sequence (P33072 170-418): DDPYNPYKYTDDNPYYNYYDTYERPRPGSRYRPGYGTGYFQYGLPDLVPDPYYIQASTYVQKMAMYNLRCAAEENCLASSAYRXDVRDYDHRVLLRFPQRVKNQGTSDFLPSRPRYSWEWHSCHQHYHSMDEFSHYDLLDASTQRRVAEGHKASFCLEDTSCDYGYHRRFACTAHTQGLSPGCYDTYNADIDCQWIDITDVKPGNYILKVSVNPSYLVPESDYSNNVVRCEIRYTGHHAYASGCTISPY

| SMILES | IC50 [1] [nM] | IC50 [2] [nM] |
| --- | --- | --- |
| Cc1c(-c2cccc(S(=O)(=O)N(C)C)c2)c2cc(C(=O)Nc3ccc4c(c3)n(CCn3cc(CCNC(=O)CCCC[C@@H]5SC[C@@H]6NC(=O)N[C@@H]65)nn3)c(=O)n4CCn3cc(CCNC(=O)CCCC[C@@H]4SC[C@@H]5NC(=O)N[C@@H]54)nn3)ccc2n1C/C(F)=C/CN [Compound 1-4, N,N′-((((5-(1-((Z)-4-amino-2-fluorobut-2-en-1-yl)-3-(3-(N,N-dimethylsulfamoyl)phenyl)-2-methyl-1H-indole-5-carboxamido)-2-oxo-1H-benzo[d]imidazole-1,3(2H)-diyl)bis(ethane-2,1-diyl))bis(1H-1,2,3-triazole-1,4-diyl))bis(ethane-2,1-diyl))bis(5-((3aS,4S,6aR)-2-oxohexahydro-1H-thieno[3,4-d]imidazol-4-yl)pentanamide) hydrochloride] | > 300 | < 300 |
| Cc1c(-c2cccc(S(=O)(=O)N(C)C)c2)c2cc(C(=O)NCCCCCNC(=O)CCCC[C@@H]3SC[C@@H]4NC(=O)N[C@@H]43)ccc2n1C/C(F)=C/CN [Compound 1-2, 1-((Z)-4-amino-2-fluorobut-2-en-1-yl)-3-(3-(N,N-dimethylsulfamoyl)phenyl)-2-methyl-N-(5-(5-((3aS,4S,6aR)-2-oxohexahydro-1H-thieno[3,4-d]imidazol-4-yl)pentanamido)pentyl)-1H-indole-5-carboxamide] | > 300 | < 300 |
| Cc1c(-c2cccc(S(=O)(=O)N(C)C)c2)c2cc(C(=O)Nc3cc(C(=O)NCCCCCNC(=O)CCCC[C@@H]4SC[C@@H]5NC(=O)N[C@@H]54)cc(C(=O)NCCCCCNC(=O)CCCC[C@@H]4SC[C@@H]5NC(=O)N[C@@H]54)c3)ccc2n1C/C(F)=C/CN [Compound 1-5, 5-(1-((Z)-4-amino-2-fluorobut-2-en-1-yl)-3-(3-(N,N-dimethylsulfamoyl)phenyl)-2-methyl-1H-indole-5-carboxamido)-N^1,N^3-bis(5-(5-((3aS,4S,6aR)-2-oxohexahydro-1H-thieno[3,4-d]imidazol-4-yl)pentanamido)pentyl)isophthalamide hydrochloride] | > 300 | < 300 |
| NC/C=C(\F)CS(=O)(=O)c1ccc(C(=O)NCc2cn(CCOCCOCCOCCNC(=O)CCCC[C@@H]3SC[C@@H]4NC(=O)N[C@@H]43)nn2)cc1 [Compound 1-7, 4-(((Z)-4-amino-2-fluorobut-2-en-1-yl)sulfonyl)-N-((1-(13-oxo-17-((3aS,4S,6aR)-2-oxohexahydro-1H-thieno[3,4-d]imidazol-4-yl)-3,6,9-trioxa-12-azaheptadecyl)-1H-1,2,3-triazol-4-yl)methyl)benzamide hydrochloride] | > 300 | > 300 |
| Cc1c(-c2cccc(S(=O)(=O)N(C)C)c2)c2cc(-c3cn(-c4cc(C(=O)NCCCCCNC(=O)CCCC[C@@H]5SC[C@@H]6NC(=O)N[C@@H]65)cc(C(=O)NCCCCCNC(=O)CCCC[C@@H]5SC[C@@H]6NC(=O)N[C@@H]65)c4)nn3)ccc2n1C/C(F)=C/CN [Compound 1-6, 5-(4-(1-((Z)-4-amino-2-fluorobut-2-en-1-yl)-3-(3-(N,N-dimethylsulfamoyl)phenyl)-2-methyl-1H-indol-5-yl)-1H-1,2,3-triazol-1-yl)-N^1,N^3-bis(5-(5-((3aS,4S,6aR)-2-oxohexahydro-1H-thieno[3,4-d]imidazol-4-yl)pentanamido)pentyl)isophthalamide hydrochloride] | > 300 | < 300 |
| Cc1c(-c2cccc(S(=O)(=O)N(C)C)c2)c2cc(C(=O)Nc3ccc4c(c3)n(Cc3cn(CCOCCOCCOCCNC(=O)CCCC[C@@H]5SC[C@@H]6NC(=O)N[C@@H]65)nn3)c(=O)n4Cc3cn(CCOCCOCCOCCNC(=O)CCCC[C@@H]4SC[C@@H]5NC(=O)N[C@@H]54)nn3)ccc2n1C/C(F)=C/CN [Compound 1-3, hydrochloride] | > 300 | < 300 |

The remaining lines, values ahead:

| IC50 [1] [nM] | IC50 [2] [nM] | SMILES |
| --- | --- | --- |
| > 300 | < 300 | NC/C=C(\F)CS(=O)(=O)c1cccc(OCCCc2cn(CCCCC[C@@H]3SC[C@@H]4NC(=O)N[C@@H]43)nn2)c1 [Compound 1-11, (3aS,4S,6aR)-4-(5-(4-(3-(3-(((Z)-4-amino-2-fluorobut-2-en-1-yl)sulfonyl)phenoxy)propyl)-1H-1,2,3-triazol-1-yl)pentyl)tetrahydro-1H-thieno[3,4-d]imidazol-2(3H)-one hydrochloride] |
| > 300 | > 300 | NC/C=C(\F)CS(=O)(=O)c1ccccc1C(=O)NCCCCCNC(=O)CCCC[C@@H]1SC[C@@H]2NC(=O)N[C@@H]21 [Compound 1-8, 2-(((Z)-4-amino-2-fluorobut-2-en-1-yl)sulfonyl)-N-(5-(5-((3aS,4S,6aR)-2-oxohexahydro-1H-thieno[3,4-d]imidazol-4-yl)pentanamido)pentyl)benzamide hydrochloride] |
| > 300 | > 300 | NC/C=C(\F)CS(=O)(=O)c1cccc(C(=O)Nc2cc(C(=O)N3CCN(C(=O)CCCC[C@@H]4SC[C@@H]5NC(=O)N[C@@H]54)CC3)cc(C(=O)N3CCN(C(=O)CCCC[C@@H]4SC[C@@H]5NC(=O)N[C@@H]54)CC3)c2)c1 [Compound 1-10, 3-(((Z)-4-amino-2-fluorobut-2-en-1-yl)sulfonyl)-N-(3,5-bis(4-(5-((3aS,4S,6aR)-2-oxohexahydro-1H-thieno[3,4-d]imidazol-4-yl)pentanoyl)piperazine-1-carbonyl)phenyl)benzamide hydrochloride] |
| > 300 | > 300 | NC/C=C(\F)CS(=O)(=O)c1cccc(N(CCCc2cn(CCCCC[C@@H]3SC[C@@H]4NC(=O)N[C@@H]43)nn2)CCCc2cn(CCCCC[C@@H]3SC[C@@H]4NC(=O)N[C@@H]43)nn2)c1 [Compound 1-13, (3aS,3a'S,4S,4'S,6aR,6a′R)-4,4′-(((((3-(((Z)-4-amino-2-fluorobut-2-en-1-yl)sulfonyl)phenyl)azanediyl)bis(propane-3,1-diyl))bis(1H-1,2,3-triazole-4,1-diyl))bis(pentane-5,1-diyl))bis(tetrahydro-1H-thieno[3,4-d]imidazol-2(3H)-one) hydrochloride] |
| > 300 | > 300 | NC/C=C(\F)CS(=O)(=O)c1cccc(C(=O)NCCCCCNC(=O)CCCC[C@@H]2SC[C@@H]3NC(=O)N[C@@H]32)c1 [Compound 1-9, 3-(((Z)-4-amino-2-fluorobut-2-en-1-yl)sulfonyl)-N-(5-(5-((3aS,4S,6aR)-2-oxohexahydro-1H-thieno[3,4-d]imidazol-4-yl)pentanamido)pentyl)benzamide hydrochloride] |
| > 300 | > 300 | NC/C=C(\F)CS(=O)(=O)c1cccc(NCCCc2cn(CCCCC[C@@H]3SC[C@@H]4NC(=O)N[C@@H]43)nn2)c1 [Compound 1-14, hydrochloride] |
| > 300 | < 300 | CN(C)S(=O)(=O)c1ccc(C(OCc2ccc(-n3cc(CNC(=O)CCOCCOCCOCCOCCNC(=O)CCCC[C@@H]4SC[C@@H]5NC(=O)N[C@@H]54)nn3)cc2)c2cn(C/C(F)=C/CN)nn2)cc1 (stereo partly drawn) [Compound 1-16, N-((1-(4-(((1-((Z)-4-amino-2-fluorobut-2-en-1-yl)-1H-1,2,3-triazol-4-yl)(4-(N,N-dimethylsulfamoyl)phenyl)methoxy)methyl)phenyl)-1H-1,2,3-triazol-4-yl)methyl)-1-(5-((3aS,4S,6aR)-2-oxohexahydro-1H-thieno[3,4-d]imidazol-4-yl)pentanamido)-3,6,9,12-tetraoxapentadecan-15-amide hydrochloride] |
